The text below walks through data of PMC6832352, “Synthesis and Glycosidase Inhibition of Broussonetine M and Its Analogues” (Molecules, 2019).

The target of one experiment is T1, α-Galactosidase (Coffea arabica, UniProt Q42656).
T1 construct: purchased Sigma-Aldrich Chemical Co
The experiment in a line: glycosidase inhibition assay, coffee beans α-galactosidase. Type of experiment: biochemical. The settings on record: for IC50: α-Galactosidase, Coffee beans. Here is the method: (§1) With rat intestinal maltase as an exception, other enzymes were purchased from Sigma-Aldrich Chemical Co. (St. Louis, Mo. USA). Brush border membranes prepared from rat small intestine according to the method of Kessler et al. were assayed at pH 6.8 for rat intestinal maltase using maltose. The released D-glucose was determined colorimetrically using the Glucose CII-test Wako (Wako Pure Chemical Ind.; Osaka, Japan). Other glycosidase activities were determined using an appropriate p-nitrophenyl glycoside as substrate in a buffer solution at the optimal pH value of each enzyme. The reaction was stopped by adding 400 mM Na2CO3. The released p-nitrophenol was measured spectrometrically at 400 nm.

The next experiment has as its target T2, α,α-Trehalase (Sus scrofa, UniProt I3LIR5).
T2 sequence (I3LIR5 24-556): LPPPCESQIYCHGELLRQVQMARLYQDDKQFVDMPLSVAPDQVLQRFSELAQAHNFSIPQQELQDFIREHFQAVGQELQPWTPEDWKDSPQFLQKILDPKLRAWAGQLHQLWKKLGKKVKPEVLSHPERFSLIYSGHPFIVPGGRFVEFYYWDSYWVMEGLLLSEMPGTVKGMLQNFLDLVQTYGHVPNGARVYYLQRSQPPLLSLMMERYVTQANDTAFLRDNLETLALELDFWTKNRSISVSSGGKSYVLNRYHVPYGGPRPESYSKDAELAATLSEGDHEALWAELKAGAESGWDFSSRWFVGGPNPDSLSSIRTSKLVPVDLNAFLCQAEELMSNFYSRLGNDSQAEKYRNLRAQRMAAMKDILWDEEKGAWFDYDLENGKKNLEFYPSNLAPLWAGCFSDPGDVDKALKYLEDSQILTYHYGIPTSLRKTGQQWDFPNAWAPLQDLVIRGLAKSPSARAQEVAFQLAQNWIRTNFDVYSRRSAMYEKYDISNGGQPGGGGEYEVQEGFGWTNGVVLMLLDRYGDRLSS
The experiment in a line: glycosidase inhibition assay, porcine kidney α,α-trehalase. In kind it is biochemical. Here is the method: as §1

A further experiment addresses T3, β-Glucuronidase (Bos taurus, UniProt A3KMY8).
T3 construct: purchased Sigma-Aldrich Chemical Co; host or cells: bovine liver
T3 sequence (A3KMY8 1-652): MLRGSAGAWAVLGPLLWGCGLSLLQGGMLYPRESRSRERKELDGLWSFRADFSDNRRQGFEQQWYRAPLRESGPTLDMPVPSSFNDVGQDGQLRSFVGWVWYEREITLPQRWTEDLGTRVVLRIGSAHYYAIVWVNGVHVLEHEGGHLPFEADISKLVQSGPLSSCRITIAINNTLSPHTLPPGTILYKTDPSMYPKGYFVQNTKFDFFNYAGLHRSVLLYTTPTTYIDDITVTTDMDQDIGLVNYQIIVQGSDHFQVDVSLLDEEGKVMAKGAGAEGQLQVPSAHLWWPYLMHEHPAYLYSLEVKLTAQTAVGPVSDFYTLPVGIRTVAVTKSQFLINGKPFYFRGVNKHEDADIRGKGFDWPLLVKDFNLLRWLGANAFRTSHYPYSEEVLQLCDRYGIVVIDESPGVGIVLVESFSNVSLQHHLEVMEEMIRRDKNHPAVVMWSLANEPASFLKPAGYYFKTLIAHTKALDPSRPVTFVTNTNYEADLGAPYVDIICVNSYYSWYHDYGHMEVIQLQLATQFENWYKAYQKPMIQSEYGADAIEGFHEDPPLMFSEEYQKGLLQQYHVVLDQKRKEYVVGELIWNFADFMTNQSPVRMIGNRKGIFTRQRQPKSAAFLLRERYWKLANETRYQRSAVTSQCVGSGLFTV
The experiment in a line: glycosidase inhibition assay, bovine liver β-glucuronidase. In kind it is biochemical. As to conditions: for IC50: β-Glucuronidase, Bovine liver. As for the experimental part:
as §1

The target in a further experiment is T4, α-L-Rhamnosidase (Penicillium decumbens, UniProt S7ZS15).
T4 sequence (S7ZS15 1-894): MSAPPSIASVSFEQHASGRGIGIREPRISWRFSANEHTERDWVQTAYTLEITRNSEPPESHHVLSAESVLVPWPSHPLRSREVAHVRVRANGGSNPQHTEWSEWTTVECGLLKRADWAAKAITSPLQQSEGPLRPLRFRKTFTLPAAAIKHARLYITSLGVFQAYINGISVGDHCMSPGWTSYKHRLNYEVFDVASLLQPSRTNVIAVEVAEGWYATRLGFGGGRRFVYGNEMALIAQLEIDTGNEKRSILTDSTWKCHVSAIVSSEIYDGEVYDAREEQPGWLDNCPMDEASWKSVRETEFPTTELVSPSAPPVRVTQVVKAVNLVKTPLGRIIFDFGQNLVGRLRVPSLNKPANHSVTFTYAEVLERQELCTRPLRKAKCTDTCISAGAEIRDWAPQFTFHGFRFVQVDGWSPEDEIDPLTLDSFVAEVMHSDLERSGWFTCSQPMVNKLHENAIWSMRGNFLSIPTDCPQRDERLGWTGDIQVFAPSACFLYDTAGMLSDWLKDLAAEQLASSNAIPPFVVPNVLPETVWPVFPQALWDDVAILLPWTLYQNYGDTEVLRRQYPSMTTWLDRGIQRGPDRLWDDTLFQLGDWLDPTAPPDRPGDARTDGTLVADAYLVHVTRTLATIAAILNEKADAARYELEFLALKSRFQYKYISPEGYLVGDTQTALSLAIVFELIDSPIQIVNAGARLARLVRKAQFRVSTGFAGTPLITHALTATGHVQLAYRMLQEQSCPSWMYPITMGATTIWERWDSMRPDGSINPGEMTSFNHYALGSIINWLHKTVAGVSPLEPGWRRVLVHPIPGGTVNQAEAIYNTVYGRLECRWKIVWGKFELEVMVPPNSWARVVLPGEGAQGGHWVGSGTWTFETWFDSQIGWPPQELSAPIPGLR
The experiment in a line: glycosidase inhibition assay, P. decumbens α-L-rhamnosidase. Type of experiment: biochemical. Here is the method:
as §1

In the next experiment the target is β-Galactosidase. The settings on record: β-galactosidase from bovine liver; natural product isolated by Kusano’s group; cited from earlier work.
The target in a further experiment is T5, β-Glucosidase (Bos taurus, UniProt F1MNT6).
T5 sequence (F1MNT6 1-469): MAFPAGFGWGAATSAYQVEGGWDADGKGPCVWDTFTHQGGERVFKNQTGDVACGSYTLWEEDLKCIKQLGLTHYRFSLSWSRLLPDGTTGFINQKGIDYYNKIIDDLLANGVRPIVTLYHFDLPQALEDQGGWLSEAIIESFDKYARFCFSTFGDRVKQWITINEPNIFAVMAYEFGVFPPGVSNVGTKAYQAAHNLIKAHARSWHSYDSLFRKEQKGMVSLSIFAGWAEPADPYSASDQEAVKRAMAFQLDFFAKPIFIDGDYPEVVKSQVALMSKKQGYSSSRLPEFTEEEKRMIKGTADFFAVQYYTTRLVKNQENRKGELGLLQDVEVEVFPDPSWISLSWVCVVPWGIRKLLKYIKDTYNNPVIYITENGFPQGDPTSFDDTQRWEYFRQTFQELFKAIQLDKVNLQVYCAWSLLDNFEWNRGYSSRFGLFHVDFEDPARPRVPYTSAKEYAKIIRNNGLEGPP
The experiment in a line: glycosidase inhibition assay, bovine liver β-glucosidase. In kind it is biochemical. As for the experimental part: as §1

Bounds are passed on as bounds.

T1 sequence (Q42656 16-378): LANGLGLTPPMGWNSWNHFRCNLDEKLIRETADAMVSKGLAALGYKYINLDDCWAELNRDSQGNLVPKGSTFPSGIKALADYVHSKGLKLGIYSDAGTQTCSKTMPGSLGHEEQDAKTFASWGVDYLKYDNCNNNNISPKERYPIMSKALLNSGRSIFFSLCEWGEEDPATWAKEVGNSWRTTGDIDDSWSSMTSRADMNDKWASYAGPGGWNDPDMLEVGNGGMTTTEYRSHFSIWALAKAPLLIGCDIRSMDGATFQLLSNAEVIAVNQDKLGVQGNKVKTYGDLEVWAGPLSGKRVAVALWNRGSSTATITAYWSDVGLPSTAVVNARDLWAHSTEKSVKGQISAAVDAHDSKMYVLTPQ

For orientation: inhibition means the share of the control response that was lost under treatment. The term IC50 denotes the midpoint of a concentration-inhibition curve. On to `OCCCC(O)CCCCCCCCCC1NC(CO)C(O)C1O` [2,10-di-epi-3, (2S,3R,4R,5R)-2-hydroxymethyl-3,4-dihydroxyl-5-((10S)-10,13-(dihydroxyl)dec-1-yl) pyrrolidine], for which the inhibition at 100 µM at α-Galactosidase is 0%; against α,α-Trehalase it was 0%; against β-Glucuronidase, 1.7%; against α-L-Rhamnosidase it was 4.7%. The half-maximal inhibitory concentration (IC50) on α-Galactosidase and against β-Glucuronidase was above 100 µM in each case.
Consider `OCCC[C@@H](O)CCCCCCCCC[C@H]1N[C@@H](CO)[C@@H](O)[C@@H]1O` [2-epi-3, (2S,3R,4R,5R)-2-hydroxymethyl-3,4-dihydroxyl-5-((10R)-10,13-(dihydroxyl)dec-1-yl) pyrrolidine], for which the inhibition at 100 µM came out at 0% against α-Galactosidase, 0% against α,α-Trehalase, 5.2% on β-Glucuronidase and 3.3% at α-L-Rhamnosidase. Moreover, the IC50 against α-Galactosidase and on β-Glucuronidase was above 100 µM each time.
With `OCCC[C@H](O)CCCCCCCCC[C@H]1N[C@H](CO)[C@@H](O)[C@@H]1O` [10’-epi-3, (2R,3R,4R,5R)-2-hydroxymethyl-3,4-dihydroxyl-5-((10S)-10,13-(dihydroxyl)dec-1-yl) pyrrolidine], the inhibition at 100 µM against α-Galactosidase turned out to be 0%; on α,α-Trehalase, 0%; on β-Glucuronidase it was 17.2%; against α-L-Rhamnosidase it was 4.7%. The 50% inhibitory concentration (IC50) against α-Galactosidase and against β-Glucuronidase was above 100 µM in each case.
As to `OCCC[C@@H](O)CCCCCCCCC[C@H]1N[C@H](CO)[C@@H](O)[C@@H]1O` [compound 3, (2R,3R,4R,5R)-2-hydroxymethyl-3,4-dihydroxyl-5-((10R)-10,13-(dihydroxyl)dec-1-yl)pyrrolidine], the inhibition at 100 µM against α-Galactosidase was 0%; against α,α-Trehalase, 0%; against β-Glucuronidase, 18.4%; against α-L-Rhamnosidase it was 6.1%. Also, the IC50 is above 100 µM at α-Galactosidase, above 100 µM against β-Glucuronidase and 8.1 µM at β-Galactosidase.
For the compound `OCCC[C@@H](O)CCCCCCCCC[C@@H]1N[C@@H](CO)[C@@H](O)[C@H]1O` [ent-3,10-di-epi-3], the inhibition at 100 µM on α-Galactosidase is 0%; at α,α-Trehalase, 3.8%; against β-Glucuronidase, 14.9%; on α-L-Rhamnosidase it was 11.4%. Moreover, the 50% inhibitory concentration (IC50) against α-Galactosidase and against β-Glucuronidase was above 100 µM throughout.
With `OCCC[C@H](O)CCCCCCCCC[C@@H]1N[C@@H](CO)[C@H](O)[C@H]1O` [ent-3, (2S,3S,4S,5S)-2-hydroxymethyl-3,4-dihydroxyl-5-((10S)-10,13-(dihydroxyl)dec-1-yl) pyrrolidine], the inhibition at 100 µM at α-Galactosidase worked out at 0.3%; against β-Glucosidase, 46.5%; at α,α-Trehalase, 2.1%; at β-Glucuronidase it was 2.3%; at α-L-Rhamnosidase it was 13.3%. In addition, the IC50 against α-Galactosidase and on β-Glucuronidase was above 100 µM throughout.
In the case of `OCCC[C@H](O)CCCCCCCCC[C@@H]1N[C@@H](CO)[C@@H](O)[C@H]1O` [ent-3-epi-3, (2S,3R,4S,5S)-2-hydroxymethyl-3,4-dihydroxyl-5-((10S)-10,13-(dihydroxyl)dec-1-yl) pyrrolidine], the inhibition at 100 µM on α-Galactosidase is 0%; on α,α-Trehalase it was 0%; on β-Glucuronidase, 0%; against α-L-Rhamnosidase it was 15.2%. In addition, the IC50 against α-Galactosidase and on β-Glucuronidase was above 100 µM in each case.
Take `OCCC[C@@H](O)CCCCCCCCC[C@@H]1N[C@@H](CO)[C@H](O)[C@H]1O` [ent-10’-epi-3]: the inhibition at 100 µM came to 12.2% against α-Galactosidase, 0% on α,α-Trehalase, 14.9% against β-Glucuronidase and 1.8% against α-L-Rhamnosidase. Also, the IC50 on α-Galactosidase and at β-Glucuronidase was above 100 µM throughout.
